“And” between values parts separate entries of the source, which are not always exact repeats. Identical values can stand only once.
Tests used:
sciatic nerve [1] = assay: Sciatic nerve block in rats: duration of thermal nociceptive (sensory) block, modified hotplate test; format: in vivo, rat; conditions: for Block Duration (min) Sensory: rat sciatic nerve injection 0.3 mL; for Sensory:Motor Block Ratio: rat sciatic nerve block
Text: (§1) Sciatic Nerve Block and Neurobehavioral Testing. Animals were cared for in compliance with protocols approved by the Children's Hospital Animal Care and Use Committee, and the Massachusetts Institute of Technology Committee on Animal Care, which conformed to guidelines of the International Association for the Study of Pain. Adult male Sprague-Dawley rats (Charles River Laboratories) weighing 320-450 g were housed in groups, in a 6 AM to 6 PM light-dark cycle. Under brief isoflurane-oxygen anesthesia, a 23G needle was introduced postero-medial to the greater trochanter, until bone was contacted, and 0.3 mL of test solution was injected over the sciatic nerve. Thermal nociception was assessed by a modified hotplate test, and motor function via a weight-bearing test. […] Motor strength was assessed with a weight-bearing test. In brief, the animal was held over a digital balance such that it could bear weight with 1 hind paw at a time. The maximum weight that it could bear was recorded. The duration of motor blockade was defined as the time for weight bearing to return halfway to normal from maximal block. The halfway point for each rat was defined as […].

sciatic nerve [2] = assay: Sciatic nerve block in rats: duration of motor block, weight-bearing test; format: in vivo; conditions: rat sciatic nerve injection 0.3 mL
Text: as §1

peak Nav1.5 = peak Nav1.5 (Homo sapiens, UniProt Q14524); assay: Whole-cell patch clamp, peak Nav1.5 current in stably transfected HEK cells; conditions: for inhibition at 10 µM: HEK293, read-out: peak Nav1.5 current amplitude, percent reduction, 10 μM, individual cell (raw data); for inhibition at 100 µM: HEK293, read-out: peak Nav1.5 current amplitude, percent reduction, 100 μM, individual cell (raw data); for peak Nav1.5 current amplitude, percent reduction: individual cell (raw data); for inhibition at 1 µM: HEK293, read-out: peak Nav1.5 current amplitude, percent reduction, 1 μM, individual cell (raw data); for inhibition at 1000 µM: HEK293, read-out: peak Nav1.5 current amplitude, percent reduction, 1000 μM, individual cell (raw data)
Chain of peak Nav1.5 (Q14524 whole entry): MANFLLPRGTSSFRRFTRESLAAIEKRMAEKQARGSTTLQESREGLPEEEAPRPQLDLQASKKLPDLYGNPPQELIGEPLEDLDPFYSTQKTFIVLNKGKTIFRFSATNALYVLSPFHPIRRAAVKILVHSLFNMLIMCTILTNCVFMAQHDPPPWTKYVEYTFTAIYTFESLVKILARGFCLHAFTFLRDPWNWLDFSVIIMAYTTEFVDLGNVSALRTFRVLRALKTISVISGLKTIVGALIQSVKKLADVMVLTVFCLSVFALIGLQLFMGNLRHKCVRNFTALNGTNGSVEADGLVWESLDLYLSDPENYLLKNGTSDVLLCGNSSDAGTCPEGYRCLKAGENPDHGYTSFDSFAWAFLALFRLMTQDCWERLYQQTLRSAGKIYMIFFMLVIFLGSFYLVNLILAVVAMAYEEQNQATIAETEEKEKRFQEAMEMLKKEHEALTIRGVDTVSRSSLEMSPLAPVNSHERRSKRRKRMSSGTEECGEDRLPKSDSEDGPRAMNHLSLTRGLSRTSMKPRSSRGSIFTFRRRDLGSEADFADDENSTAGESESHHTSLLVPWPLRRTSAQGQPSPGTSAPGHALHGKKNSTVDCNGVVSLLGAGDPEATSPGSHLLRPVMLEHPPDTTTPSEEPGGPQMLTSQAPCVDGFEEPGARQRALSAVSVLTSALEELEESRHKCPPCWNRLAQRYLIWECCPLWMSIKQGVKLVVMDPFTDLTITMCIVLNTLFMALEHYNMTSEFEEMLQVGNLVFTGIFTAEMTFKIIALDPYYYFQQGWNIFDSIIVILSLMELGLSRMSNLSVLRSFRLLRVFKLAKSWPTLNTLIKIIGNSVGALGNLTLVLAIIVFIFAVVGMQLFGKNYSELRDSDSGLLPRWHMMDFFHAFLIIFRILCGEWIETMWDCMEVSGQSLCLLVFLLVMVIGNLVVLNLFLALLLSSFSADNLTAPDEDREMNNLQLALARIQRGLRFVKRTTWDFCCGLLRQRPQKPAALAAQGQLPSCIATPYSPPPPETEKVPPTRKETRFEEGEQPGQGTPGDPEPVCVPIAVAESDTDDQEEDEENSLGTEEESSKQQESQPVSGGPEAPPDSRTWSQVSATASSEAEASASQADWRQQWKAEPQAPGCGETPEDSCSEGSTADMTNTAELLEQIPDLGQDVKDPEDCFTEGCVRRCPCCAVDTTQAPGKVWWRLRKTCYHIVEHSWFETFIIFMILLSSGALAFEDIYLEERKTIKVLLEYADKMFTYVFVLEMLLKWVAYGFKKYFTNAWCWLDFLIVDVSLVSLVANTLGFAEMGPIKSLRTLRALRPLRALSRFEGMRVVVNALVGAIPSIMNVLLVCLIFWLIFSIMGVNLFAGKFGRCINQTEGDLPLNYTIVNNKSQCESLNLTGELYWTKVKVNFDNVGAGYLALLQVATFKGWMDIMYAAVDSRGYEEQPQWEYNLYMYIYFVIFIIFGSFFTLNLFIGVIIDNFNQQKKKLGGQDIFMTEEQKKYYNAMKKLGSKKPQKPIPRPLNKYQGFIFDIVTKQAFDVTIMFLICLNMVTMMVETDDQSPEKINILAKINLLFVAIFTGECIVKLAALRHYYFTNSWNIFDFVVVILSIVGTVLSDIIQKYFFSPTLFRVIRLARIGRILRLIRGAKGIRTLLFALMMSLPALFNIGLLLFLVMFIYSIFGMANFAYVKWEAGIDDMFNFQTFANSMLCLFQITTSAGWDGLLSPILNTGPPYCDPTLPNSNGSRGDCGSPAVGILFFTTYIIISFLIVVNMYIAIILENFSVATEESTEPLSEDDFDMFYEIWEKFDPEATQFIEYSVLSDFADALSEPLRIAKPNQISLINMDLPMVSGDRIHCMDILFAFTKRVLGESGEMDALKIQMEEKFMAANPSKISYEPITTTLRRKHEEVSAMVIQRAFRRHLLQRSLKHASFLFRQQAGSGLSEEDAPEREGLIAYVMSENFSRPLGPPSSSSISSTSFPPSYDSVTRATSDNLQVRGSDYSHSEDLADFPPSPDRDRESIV
Description: (§2) These experiments were designed to examine the acute effects of 4Sa (ZYK2312-1), 4Sb (ZYK2312-2), and bupivacaine on hERG and peak Nav1.5 currents recorded from stably transfected HEK cells.
(§3) Experimental Methods: Currents were measured using the whole-cell variant of the patch clamp method. Glass pipettes were pulled from borosilicate glass by a horizontal puller (Sutter Instruments, USA). Pipette tip resistance was approximately 1 to 2 MΩ when filled with internal solutions. Series resistance was compensated electronically by approximately 60-80%. Bath temperature was measured by a thermistor placed near the cell under study. An Axopatch 1-B amplifier (Axon Instruments, Foster City, CA) was used for whole-cell voltage clamping. Creation of voltage clamp pulses and data acquisition was controlled by a computer running pClamp software (ver 9.2 Axon Instruments). After rupture of the cell membrane (entering whole-cell mode), current kinetics and amplitudes were allowed to stabilize as the cell was dialyzed with internal solution and paced every 5 seconds (typically 2 to 3 minutes). Peak INa was elicited using a pulse pattern with fixed amplitudes (conditioning prepulse: −120 mV for 50 ms; depolarizing test step to −30 mV for 20 ms). hERG current was elicited with a 500 ms pulse to +10 mV followed by a 500 ms pulse to −40 mV (holding potential=[…]). Cells were perfused at each testing concentration until a steady-state was reached.
(§4) Raw data and mean±SEM are given. Data are presented as percent reduction of current amplitude. […] Each cell served as its own control. A nonlinear curve-fitting routine was utilized to fit a three-parameter Hill equation to the results using MicroCal Origin, version 6.0 software. The equation is:
(§5) [formula] where Vmax=100 and k and n are unconstrained variables.

PC12 cells = assay: Cytotoxicity in PC12 cells; format: cell-based, rat; conditions: for IC50: Rattus norvegicus, PC-12, cytotoxicity, exposure up to 24 h; for cytotoxicity compared with ropivacaine and bupivacaine (in words): FIG. 1 / Table 2
Description: (§6) C2C12 Mouse myoblasts [American Type Culture Collection (ATCC) CRL-1772] were cultured to proliferate in DMEM supplemented with 20% FBS and 100 Penicillin Streptomycin. Cell culture supplies were obtained from Invitrogen, unless otherwise noted. Cells were plated at 50,000 cells per mL in DMEM with 2% horse serum and 1% Penn Strep, and left to differentiate into myotubules for 10-14 days. During differentiation, media were exchanged every 2 to 3 days. Cell viability and proliferation were studied after exposures to drugs for up to 24 h. PC12 cells (ATCC, CRL-1721) originating from rat adrenal gland pheochromocytoma were grown in 24-well tissue culture dishes (CellBind; Corning) with F-12K (ATCC) supplemented with 12.5% horse serum (Gibco), 2.5% FBS (Gibco), and 1% Penn Strep (Sigma). For neuronal induction (PC12), cells were seeded at a relative low density of 5×10^4 cells/cm2 and 50 ng/mL NGF was added 24 h after seeding. Cell viability and proliferation were evaluated as for C2C12 cells. Experiments with PC12 cells were conducted for up to 24 hours.

C2C12 Mouse myoblasts = assay: Cytotoxicity in C2C12 myotubules; format: cell-based; conditions: C2C12 cells; for IC50: Mus musculus, cytotoxicity, exposure up to 24 h; for cytotoxicity compared with ropivacaine and bupivacaine (in words): FIG. 2 / Table 2
Description: as §6

hERG = hERG (Homo sapiens, UniProt Q12809); assay: Whole-cell patch clamp, hERG current in stably transfected HEK cells
Chain of hERG (Q12809 whole entry): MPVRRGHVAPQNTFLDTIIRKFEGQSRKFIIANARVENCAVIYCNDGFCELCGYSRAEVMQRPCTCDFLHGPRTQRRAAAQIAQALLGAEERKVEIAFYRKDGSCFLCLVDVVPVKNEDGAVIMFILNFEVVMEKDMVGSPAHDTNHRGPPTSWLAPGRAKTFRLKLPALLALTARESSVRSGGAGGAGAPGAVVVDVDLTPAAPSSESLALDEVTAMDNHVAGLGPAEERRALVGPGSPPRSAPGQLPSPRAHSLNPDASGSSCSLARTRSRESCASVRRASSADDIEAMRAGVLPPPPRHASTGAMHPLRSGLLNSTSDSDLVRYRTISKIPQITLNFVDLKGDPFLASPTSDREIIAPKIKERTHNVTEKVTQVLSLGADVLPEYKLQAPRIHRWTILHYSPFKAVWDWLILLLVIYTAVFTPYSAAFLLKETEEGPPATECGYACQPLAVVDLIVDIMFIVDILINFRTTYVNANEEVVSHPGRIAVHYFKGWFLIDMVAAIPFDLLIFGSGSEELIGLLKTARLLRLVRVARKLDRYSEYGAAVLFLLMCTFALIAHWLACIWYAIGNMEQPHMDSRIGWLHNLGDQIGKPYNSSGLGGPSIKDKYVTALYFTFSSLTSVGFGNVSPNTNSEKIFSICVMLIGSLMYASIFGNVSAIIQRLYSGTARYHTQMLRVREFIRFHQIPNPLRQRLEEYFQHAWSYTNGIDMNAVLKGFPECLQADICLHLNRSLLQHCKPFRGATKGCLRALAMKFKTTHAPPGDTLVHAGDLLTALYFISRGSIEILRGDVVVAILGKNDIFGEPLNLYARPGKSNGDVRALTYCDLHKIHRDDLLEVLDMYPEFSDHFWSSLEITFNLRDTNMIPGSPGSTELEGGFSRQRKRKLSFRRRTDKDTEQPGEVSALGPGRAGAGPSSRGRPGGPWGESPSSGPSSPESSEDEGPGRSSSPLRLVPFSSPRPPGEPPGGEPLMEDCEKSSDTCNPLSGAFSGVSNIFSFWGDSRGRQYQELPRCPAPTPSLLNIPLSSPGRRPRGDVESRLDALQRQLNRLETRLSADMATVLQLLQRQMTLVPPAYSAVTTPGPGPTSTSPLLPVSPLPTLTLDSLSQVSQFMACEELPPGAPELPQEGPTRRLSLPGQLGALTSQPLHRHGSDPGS
Description: as §2, §3, §4, §5

SMILES	Block Duration (min) Sensory (sciatic nerve [1]; dose conc 10 mM) [min]	Block Duration (min) Sensory (sciatic nerve [1]; dose conc 15 mM) [min]	Block Duration (min) Motor (sciatic nerve [2]; dose conc 10 mM) [min]	Block Duration (min) Motor (sciatic nerve [2]; dose conc 15 mM) [min]	peak Nav1.5 current amplitude, percent reduction, mean ± SE (peak Nav1.5; 1 μM) [%]	peak Nav1.5 current amplitude, percent reduction, mean ± SE (peak Nav1.5; 10 μM) [%]	peak Nav1.5 current amplitude, percent reduction, mean ± SE (peak Nav1.5; 100 μM) [%]	inhibition at 10 µM (peak Nav1.5) [%]	inhibition at 100 µM (peak Nav1.5) [%]	IC50 (PC12 cells) [µM]	IC50 (C2C12 Mouse myoblasts) [µM]	IC50 (hERG) [µM]	peak Nav1.5 current amplitude, percent reduction (peak Nav1.5; 1 μM) [%]	peak Nav1.5 current amplitude, percent reduction (peak Nav1.5; 10 μM) [%]	peak Nav1.5 current amplitude, percent reduction, mean ± SE (peak Nav1.5; 300 μM) [%]	peak Nav1.5 current amplitude, percent reduction, mean ± SE (peak Nav1.5; 1000 μM) [%]	inhibition at 1 µM (peak Nav1.5) [%]	inhibition at 1000 µM (peak Nav1.5) [%]	cytotoxicity compared with ropivacaine and bupivacaine (in words) (PC12 cells)	cytotoxicity compared with ropivacaine and bupivacaine (in words) (C2C12 Mouse myoblasts)	further results
CCCCN1CCCCC1C(=O)Nc1c(C)cccc1C (stereo not drawn) [Bupivacaine, bupivacaine, reference compound]	129 ± 21	215 ± 31	140 ± 15	222 ± 30	13.5 ± 3.1	49.0 ± 1.0	90.7 ± 1.5	50.8	89.2	870	720	16.4	–	–	–	–	–	–	–	–	IC50 (peak Nav1.5): 9.8 µM; hERG current amplitude, percent reduction (hERG; 1 μM, individual cell (raw data)): 19.8% and 9.1% and 10.5%; hERG current amplitude, percent reduction, mean ± SE (hERG; 1 μM, mean ± SE): 13.1 ± 3.4%; hERG current amplitude, percent reduction (hERG; 10 μM, individual cell (raw data)): 43.0% and 45.0% and 42.1%; hERG current amplitude, percent reduction, mean ± SE (hERG; 10 μM, mean ± SE): 43.4 ± 0.9%; hERG current amplitude, percent reduction (hERG; 100 μM, individual cell (raw data)): 76.3% and 70.7% and 78.9%; hERG current amplitude, percent reduction, mean ± SE (hERG; 100 μM, mean ± SE): 75.3 ± 2.4%
CCC[N@@+]1(CC(=O)OC)CCCC[C@H]1C(=O)Nc1c(C)cccc1C.[Br-] [Compound 4Sb, 2-((2,6-Dimethylphenyl)carbamoyl)-1-(2-methoxy-2-oxoethyl)-1-propylpiperidin-1-ium bromide]	90 ± 30	200 ± 30	0	0	0 ± 0	0 ± 0	0 ± 0	0	0	–	–	–	0	0	4.2 ± 0.9	13.3 ± 2.9	0	13.8	significantly less cytotoxic than ropivacaine and bupivacaine	significantly less cytotoxic than ropivacaine and bupivacaine	Sensory:Motor Block Ratio (sciatic nerve [1]; dose conc 10 mM): ∞; Sensory:Motor Block Ratio (sciatic nerve [1]; dose conc 15 mM): ∞; peak Nav1.5 current amplitude, percent reduction (peak Nav1.5; 100 μM): 0%; IC50 (PC12 cells; unit inferred): 20100 µM; IC50 (C2C12 Mouse myoblasts; unit inferred): 19300 µM; hERG current amplitude, percent reduction (hERG; human, 1 μM): 0%; hERG current amplitude, percent reduction, mean ± SE (hERG; human, 1 μM): 0 ± 0%; hERG current amplitude, percent reduction (hERG; human, 10 μM): 0%; hERG current amplitude, percent reduction, mean ± SE (hERG; human, 10 μM): 0 ± 0%; hERG current amplitude, percent reduction, mean ± SE (hERG; human, 100 μM): 1.5 ± 0.8%; hERG current amplitude, percent reduction, mean ± SE (hERG; human, 300 μM): 6.4 ± 1.1%; hERG current amplitude, percent reduction, mean ± SE (hERG; human, 1000 μM): 18.3 ± 2.9%
CCC[N@+]1(CC(=O)OC)CCCC[C@H]1C(=O)Nc1c(C)cccc1C.[Br-] [Compound 4Sa, 2-((2,6-Dimethylphenyl)carbamoyl)-1-(2-methoxy-2-oxoethyl)-1-propylpiperidin-1-ium bromide]	200 ± 60	–	100 ± 60	–	0 ± 0	0 ± 0	2.3 ± 1.4	0	–	19200	14600	814	0	0	5.6 ± 1.8	14.6 ± 3.4	0	11.2	significantly less cytotoxic than ropivacaine and bupivacaine	significantly less cytotoxic than ropivacaine and bupivacaine	inhibition at 300 µM (peak Nav1.5; HEK293, read-out: peak Nav1.5 current amplitude, percent reduction, 300 μM, individual cell (raw data)): 3.7%; hERG current amplitude, percent reduction (hERG; human, 1 μM): 0%; hERG current amplitude, percent reduction, mean ± SE (hERG; human, 1 μM): 0 ± 0%; hERG current amplitude, percent reduction, mean ± SE (hERG; human, 10 μM): 3.6 ± 0.5%; hERG current amplitude, percent reduction, mean ± SE (hERG; human, 100 μM): 16.8 ± 4.0%; hERG current amplitude, percent reduction, mean ± SE (hERG; human, 300 μM): 31.3 ± 2.0%; hERG current amplitude, percent reduction, mean ± SE (hERG; human, 1000 μM): 51.6 ± 2.2%

— patent US12454509B2, “Local anesthetics with selective-sensory nerve blockade” (Children's Medical Center Corporation, priority 2019, dated 2025)
